Assay results as given in patent publication US6737383B1, “Herbicidal oxadiazolidines” (priority 1999, dated 2004).

Assays:
bedstraw = assay: Test B pre/postemergence bedstraw; type: in vivo, Galium aparine; settings: Postemergence, Rate 125 g/ha; scale of 0 to 10 where 0 is no effect and 10 is complete control
Outline: (§1)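 Test chemicals in a non-phytotoxic solvent mixture with surfactant were sprayed preemergence onto planted seeds and postemergence onto plants 2 to 18 cm tall (1- to 4-leaf stage). After twelve to sixteen days in a greenhouse, injury was visually rated against untreated controls from 0 (no effect) to 10 (complete control).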

blackgrass = assay: Test B pre/postemergence blackgrass; type: in vivo, Alopecurus myosuroides
Outline: as §1

surinam grass = assay: Test B pre/postemergence surinam grass; type: in vivo, Brachiaria decumbens
Outline: as §1

cocklebur = assay: Test B pre/postemergence cocklebur; type: in vivo, Xanthium strumarium
Outline: as §1

corn = assay: Test B pre/postemergence corn; type: in vivo, Zea mays
Outline: as §1

crabgrass = assay: Test B pre/postemergence crabgrass; type: in vivo, Digitaria sanguinalis
Outline: as §1

giant foxtail = assay: Test B pre/postemergence giant foxtail; type: in vivo, Setaria faberii
Outline: as §1

rape = assay: Test B pre/postemergence rape; type: in vivo, Brassica napus
Outline: as §1

soybean = assay: Test B pre/postemergence soybean; type: in vivo, Glycine max
Outline: as §1

sugar beet = assay: Test B pre/postemergence sugar beet; type: in vivo, Beta vulgaris
Outline: as §1

velvetleaf = assay: Test B pre/postemergence velvetleaf; type: in vivo, Abutilon theophrasti
Outline: as §1

wheat = assay: Test B pre/postemergence wheat; type: in vivo, Triticum aestivum
Outline: as §1

purple nutsedge = assay: Test B pre/postemergence purple nutsedge; type: in vivo, Cyperus rotundus
Outline: as §1

rice = assay: Test B flood test rice; type: in vivo, Oryza sativa
Outline: (§2)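 Flood test on plants grown to the 2-leaf stage; treated plants kept in greenhouse twelve to sixteen days, then visually rated against controls on a 0 (no effect) to 10 (complete control) scale.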

smallflower flatsedge = assay: Test B flood test smallflower flatsedge; type: in vivo, Cyperus difformis
Outline: as §2

duck salad = assay: Test B flood test duck salad; type: in vivo, Heteranthera limosa
Outline: as §2

bamyardgrass = assay: Test B flood test barnyardgrass; type: in vivo, Echinochloa crus-galli
Outline: as §2

[1] = Postemergence, Rate 62 g/ha, scale 0 to 10, 0 is no effect, 10 is complete control
[2] = Postemergence, Rate 125 g/ha, scale of 0 to 10 where 0 is no effect and 10 is complete control
[3] = Postemergence, Rate 250 g/ha, scale of 0 to 10, 0 is no effect, 10 is complete control
[4] = Preemergence, Rate 62 g/ha, scale of 0 to 10 where 0 is no effect and 10 is complete control
[5] = Preemergence, Rate 125 g/ha, scale of 0 to 10 where 0 is no effect and 10 is complete control
[6] = Preemergence, Rate 250 g/ha, scale 0 to 10 (0 no effect, 10 complete control)
[7] = Preemergence, Rate 500 g/ha, scale of 0 to 10 where 0 is no effect and 10 is complete control
[8] = Rate 500 g/ha, Postemergence, scale 0 to 10, 0 is no effect, 10 is complete control
[9] = Rate 62 g/ha, flood test species, Pre-emergence, visual evaluation after twelve to sixteen days
[10] = Rate 125 g/ha, under heading Pre-emergence, flood test species, visual evaluation after twelve to sixteen days
[11] = Rate 250 g/ha, Pre-emergence (flood test species), scale 0 to 10, 0 is no effect, 10 is complete control
[12] = Rate 500 g/ha, Pre-emergence section of Table B, 0 to 10 scale (0 no effect, 10 complete control)

## CC(C)N(C(=O)n1oc(=O)n(CCF)c1=O)c1ccc(Cl)cc1 [Compound 668]
bedstraw
  Bedstraw plant response rating: 0
blackgrass; [1]
  Plant response rating, Blackgrass: 7
blackgrass; [2]
  Blackgrass plant response rating: 8
blackgrass; [3]
  Blackgrass plant response rating: 8
blackgrass; [4]
  Blackgrass plant response rating: 6
blackgrass; [5]
  Blackgrass plant response rating: 8
blackgrass; [6]
  Plant response rating, Blackgrass: 10
blackgrass; [7]
  Plant response rating, Blackgrass: 10
blackgrass; [8]
  Blackgrass plant response rating: 9
Surinam grass; [1]
  Plant response rating, B. signalgrass: 1
Surinam grass; [2]
  Plant response rating, B. signalgrass: 2
Surinam grass; [3]
  B. signalgrass plant response rating: 4
Surinam grass; [4]
  B. signalgrass plant response rating: 5
Surinam grass; [5]
  B. signalgrass plant response rating: 8
Surinam grass; [6]
  Plant response rating, B. signalgrass: 8
Surinam grass; [7]
  Plant response rating, B. signalgrass: 9
Surinam grass; [8]
  B. signalgrass plant response rating: 5
cocklebur; [1]
  Plant response rating, Cocklebur: 0
cocklebur; [2]
  Cocklebur plant response rating: 0
cocklebur; [3]
  Cocklebur plant response rating: 2
cocklebur; [4]
  Cocklebur plant response rating: 0
cocklebur; [5]
  Cocklebur plant response rating: 0
cocklebur; [6]
  Plant response rating, Cocklebur: 0
cocklebur; [7]
  Plant response rating, Cocklebur: 0
cocklebur; [8]
  Cocklebur plant response rating: 2
corn; [1]
  Plant response rating, Corn: 0
corn; [2]
  Corn plant response rating: 0
corn; [3]
  Corn plant response rating: 3
corn; [4]
  Corn plant response rating: 0
corn; [6]
  Plant response rating, Corn: 4
corn; [7]
  Plant response rating, Corn: 9
corn; [8]
  Corn plant response rating: 3
crabgrass; [1]
  Plant response rating, Crabgrass: 6
crabgrass; [2]
  Crabgrass plant response rating: 9
crabgrass; [3]
  Crabgrass plant response rating: 9
crabgrass; [4]
  Crabgrass plant response rating: 8
crabgrass; [5]
  Crabgrass plant response rating: 8
crabgrass; [6]
  Plant response rating, Crabgrass: 8
crabgrass; [7]
  Plant response rating, Crabgrass: 8
crabgrass; [8]
  Crabgrass plant response rating: 10
Giant foxtail; [1]
  Plant response rating, Giant foxtail: 8
Giant foxtail; [2]
  Giant foxtail plant response rating: 9
Giant foxtail; [3]
  Giant foxtail plant response rating: 9
Giant foxtail; [4]
  Giant foxtail plant response rating: 9
Giant foxtail; [5]
  Giant foxtail plant response rating: 9
Giant foxtail; [6]
  Plant response rating, Giant foxtail: 9
Giant foxtail; [7]
  Plant response rating, Giant foxtail: 10
Giant foxtail; [8]
  Giant foxtail plant response rating: 9
rape; [1]
  Plant response rating, Rape: 2
rape; [2]
  Rape plant response rating: 3
rape; [4]
  Rape plant response rating: 0
rape; [5]
  Rape plant response rating: 5
rape; [6]
  Plant response rating, Rape: 8
rape; [7]
  Plant response rating, Rape: 9
rape; [8]
  Rape plant response rating: 4
soybean; [1]
  Plant response rating, Soybean: 2
soybean; [2]
  Soybean plant response rating: 2
soybean; [4]
  Soybean plant response rating: 0
soybean; [5]
  Soybean plant response rating: 1
soybean; [6]
  Plant response rating, Soybean: 1
soybean; [7]
  Plant response rating, Soybean: 6
soybean; [8]
  Soybean plant response rating: 6
Sugar beet; [1]
  Plant response rating, Sugarbeets: 0
Sugar beet; [2]
  Sugarbeets plant response rating: 0
Sugar beet; [4]
  Sugarbeets plant response rating: 0
Sugar beet; [5]
  Sugarbeets plant response rating: 6
Sugar beet; [6]
  Plant response rating, Sugarbeets: 6
Sugar beet; [7]
  Plant response rating, Sugarbeets: 9
Sugar beet; [8]
  Sugarbeets plant response rating: 6
velvetleaf; [1]
  Plant response rating, Velvetleaf: 0
velvetleaf; [2]
  Velvetleaf plant response rating: 0
velvetleaf; [4]
  Velvetleaf plant response rating: 3
velvetleaf; [5]
  Velvetleaf plant response rating: 6
velvetleaf; [6]
  Plant response rating, Velvetleaf: 7
velvetleaf; [7]
  Plant response rating, Velvetleaf: 8
velvetleaf; [8]
  Velvetleaf plant response rating: 7
wheat; [1]
  Plant response rating, Wheat: 0
wheat; [2]
  Wheat plant response rating: 0
wheat; [4]
  Wheat plant response rating: 0
wheat; [5]
  Wheat plant response rating: 0
wheat; [6]
  Plant response rating, Wheat: 5
wheat; [7]
  Plant response rating, Wheat: 7
wheat; [8]
  Wheat plant response rating: 0
Purple nutsedge; [1]
  Plant response rating, Nutsedge: 0
Purple nutsedge; [2]
  Nutsedge plant response rating: 0
Purple nutsedge; [4]
  Nutsedge plant response rating: 0
Purple nutsedge; [5]
  Nutsedge plant response rating: 0
Purple nutsedge; [6]
  Plant response rating, Nutsedge: 0
Purple nutsedge; [7]
  Plant response rating, Nutsedge: 0
Purple nutsedge; [8]
  Nutsedge plant response rating: 0
rice; [9]
  Plant response rating, Rice (0 to 10 scale, 0 is no effect, 10 is complete control): 0
rice; [10]
  Rice plant response rating (0 to 10 scale, 0 is no effect, 10 is complete control): 0
rice; [11]
  Rice plant response rating: 0
rice; [12]
  Rice plant response rating: 0
Smallflower flatsedge; [9]
  Plant response rating, S. Flatsedge (0 to 10 scale, 0 is no effect, 10 is complete control): 0
Smallflower flatsedge; [10]
  S. Flatsedge plant response rating (0 to 10 scale, 0 is no effect, 10 is complete control): 0
Smallflower flatsedge; [11]
  S. Flatsedge plant response rating: 0
Smallflower flatsedge; [12]
  S. Flatsedge plant response rating: 0
Duck salad; [9]
  Plant response rating, Ducksalad (0 to 10 scale, 0 is no effect, 10 is complete control): 0
Duck salad; [10]
  Ducksalad plant response rating (0 to 10 scale, 0 is no effect, 10 is complete control): 0
Duck salad; [11]
  Ducksalad plant response rating: 0
Duck salad; [12]
  Ducksalad plant response rating: 0
bamyardgrass; [9]
  Plant response rating, Barnyardgrass (0 to 10 scale, 0 is no effect, 10 is complete control): 0
bamyardgrass; [10]
  Barnyardgrass plant response rating (0 to 10 scale, 0 is no effect, 10 is complete control): 0
bamyardgrass; [11]
  Barnyardgrass plant response rating: 0
bamyardgrass; [12]
  Barnyardgrass plant response rating: 0
